# Values quoted from earlier work in patent US20100273825A1, “SOLID PHARMACEUTICAL COMPOSITION CONTAINING SOLIFENACIN AMORPHOUS FORM” (ASTELLAS PHARMA INC., priority 2009, published 2010).
# Target: M3 receptors (Homo sapiens, UniProt P20309)
# Details: M3 in smooth muscles, gland tissues; M2 in the heart
# Sequence of M3 receptors (P20309 whole entry): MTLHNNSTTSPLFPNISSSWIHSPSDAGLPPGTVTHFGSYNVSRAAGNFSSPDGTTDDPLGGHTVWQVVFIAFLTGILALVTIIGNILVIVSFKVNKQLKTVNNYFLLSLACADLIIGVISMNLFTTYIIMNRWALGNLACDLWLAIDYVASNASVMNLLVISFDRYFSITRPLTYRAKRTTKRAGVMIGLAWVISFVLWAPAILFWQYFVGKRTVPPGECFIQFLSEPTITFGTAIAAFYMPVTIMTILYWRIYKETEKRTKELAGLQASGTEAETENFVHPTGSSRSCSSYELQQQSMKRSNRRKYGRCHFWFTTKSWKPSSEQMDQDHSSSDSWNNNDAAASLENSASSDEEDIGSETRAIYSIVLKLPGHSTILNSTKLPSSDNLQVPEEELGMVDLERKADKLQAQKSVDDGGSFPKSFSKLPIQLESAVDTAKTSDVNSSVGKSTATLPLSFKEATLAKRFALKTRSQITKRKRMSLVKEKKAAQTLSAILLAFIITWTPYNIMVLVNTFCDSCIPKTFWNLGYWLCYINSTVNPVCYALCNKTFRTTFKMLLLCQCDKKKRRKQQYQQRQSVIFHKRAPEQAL
smiles,measurement,value
"O=C(O[C@H]1CN2CCC1CC2)N1CCc2ccccc2[C@@H]1c1ccccc1 [solifenacin, (R)-quinuclidin-3-yl (S)-1-phenyl-1,2,3,4-tetrahydroisoquinoline-2-carboxylate]",Selectivity for M3 receptors in comparison with M2 receptors,high selectivity
